Data set [1] can be described thus: Formation kinetics of Pb2+ complexes (UV-Vis / 1H NMR). In kind it is physicochemical. As to conditions: pH = 5, equimolar ligand and metal concentrations (10^–4 M), room temperature. As for the experimental part: The formation kinetics of the Pb^2+ complexes was evaluated at room temperature by UV–Vis or ^1H NMR spectroscopy. A typical experiment was performed by mixing equimolar amounts of metal and ligand solutions (final concentrations: 1.0 × 10^–4 M for UV–Vis, 1.0 × 10^–3 M for ^1H NMR) in buffered media at pH = 2 (HCl 10^–2 M), pH = 3.7 (formic/formiate buffer), pH = 5 (acetic/acetate buffer), and pH = 7.4 (2-[4-(2-hydroxyethyl)piperazin-1-yl]ethanesulfonic acid, i.e., HEPES, buffer). To avoid the formation of PbCO3 (Ks = 7.4 × 10^–14), water was boiled before each measurement.
The electronic spectra were collected in the 200–800 nm range at different time points using a Cary 60 UV–Visible spectrophotometer (Agilent) equipped with a 1 cm path length quartz cell. The complexation reactions were monitored by the increase in the absorption peaks diagnostic of the Pb^2+-ligand complex formation at the characteristic wavelength (Table S2) over time. ^1H NMR spectra were recorded on a 400 MHz Bruker Avance III HD spectrometer. All data were collected […] with Topspin 3.5 using standard Bruker processing parameters with Topspin 4.1.1 software. […] Water suppression was carried out with the excitation sculpting pulse scheme.[38]

Data set [2] in a line: Out-of-cell UV-Vis spectrophotometric titrations (stability constants, pPb). In kind it is physicochemical. As for the experimental part: The ionic strength (I) was fixed to 0.15 M using sodium nitrate (NaNO3) as background electrolytes. All of the experiments described below were repeated at least in triplicate.
UV–Vis spectrophotometric titrations were carried out by the out-of-cell method in the pH range of 0–12 at T = 25 °C. […] A Mettler Toledo pH meter with a glass electrode was used to measure the pH. […] In highly acidic solutions (pH ≪ 2), the pH was computed from the acid concentration (pH = −logCH^+). After the pH adjustment, the vials were sealed, heated to T = 60 °C to ensure complete Pb^2+ complexation, and cooled to room temperature. The absorption spectra were recorded using the same apparatus described for the kinetic measurements (vide supra). The equilibrium was reached when no variations of the electronica spectra or the pH were detected.
All equilibrium data were processed using the least-squares fitting program PITMAP as described in our previous works.[2],[4],[28] The overall equilibrium constants refer to the general equilibria pM^m+ + qH^+ + rL^l– ⇆ MpHqLr^pm+q–rl, where M^m+ represent the metal ion and L^l– represents the deprotonated ligand, and are designated as logβ (βpqr = [MpLqHr]/[M]^p[L]^q[H]^r). The refinements of log β included the previously determined ligand protonation constants and the Pb^2+ hydrolysis products whose equilibrium constants were fixed to the literature values.[27],[39] […] The errors quoted are the standard deviations of the overall stability constants calculated by the PITMAP program.

Data set [3] in a line: Direct in-cell pH-potentiometric titrations. In kind it is physicochemical. The settings on record: pH-potentiometry, I = 0.15 M NaNO3, T = 25 °C. As for the experimental part: Nitric acid (HNO3) solutions were prepared at ∼10^–1 M by dilution of the concentrated acid (Aristar - VWR Chemicals, 69%) and standardized against sodium carbonate (Aldrich, 99.95–100.5%). Carbonate-free sodium hydroxide (NaOH) solutions were prepared at ∼10^–1 M from commercial pellets (Fluka, 99% min) using freshly boiled ultrapure water and standardized using the previously standardized acid. […] Pb^2+ solutions were preprepared from analytical-grade nitrate salt (Pb(NO3)2, Sigma-Aldrich, 99%) and standardized using complexometric titrations with ethylenediaminetetraacetic acid (EDTA) with xylenole orange as an indicator. The ionic strength (I) was fixed to 0.15 M using sodium nitrate (NaNO3) as background electrolytes. All of the experiments described below were repeated at least in triplicate.
Direct (in-cell) pH-potentiometric titrations were carried out with an automated Metrohm 765 Dosimat titrating system using a Metrohm 713 pH meter. […]
All equilibrium data were processed using the least-squares fitting program PITMAP as described in our previous works.[2],[4],[28] […] The refinements of log β included the previously determined ligand protonation constants and the Pb^2+ hydrolysis products whose equilibrium constants were fixed to the literature values.[27],[39] […] The errors quoted are the standard deviations of the overall stability constants calculated by the PITMAP program.

Data set [4] in a line: Concentration-dependent radiolabeling with [203Pb]Pb2+ (iTLC). The settings on record: for radiochemical incorporation (RCI) of [^203Pb]Pb^2+: 1 h. As for the experimental part:
Water replaced the ligands in the negative control. All of the radiolabeling for the cyclen-based derivatives was performed at room temperature and monitored at 5 min and 1 h time points whereas heating at T = 80 °C was also employed for TACD3S, TRI4S, and TE4S. All radiolabeling reactions were repeated at least in triplicate.
Radiochemical incorporation (RCI) was determined via instant thin-layer chromatography (iTLC) with silicic acid (SA)-impregnated paper TLC plates (iTLC-SA, Agilent Technologies, USA). Ethylenediamine tetraacetic acid (EDTA, 50 mM, pH = 5.5) was used as the eluent. […] The iTLC plates were analyzed on an Eckert & Ziegler AR-2000 TLC scanner, and all the data were processed with Eckert & Ziegler WinScan software.

Details of data set [5]: method as in doi:10.1016/0010-8545(91)80023-7. The settings on record: T = 25 °C, nonfunctionalized macrocycles; cited from earlier work.
Setting [6] is: calculated at CPb^2+ = 10^–6 M, Cligand = 10^–5 M, pH = 7.4.

Marks after values point to notes of the source that are not given here. Some results are limits rather than exact numbers.

For the compound `CSCCN1CCN(CC(=O)O)CCN(CCSC)CCN(CC(=O)O)CC1` [DO2A2S, 1,7-bis[2-(methylsulfanyl)ethyl]-1,4,7,10-tetraazacyclododecane-4,10-diacetic acid], in data set [1], the “time to reach equilibrium of Pb^2+ complexation” value is recorded as “practically instantaneous”. Besides, in data set [2] (UV–Vis spectrophotometric titrations, I = 0.15 M NaNO3, T = 25 °C), the “log β, Pb^2+ + L ⇋ [PbL]” value turned out to be 18.3 ± 0.1. In addition, the “pPb = −log[Pb^2+]free” value in data set [2] (setting [6]) is recorded as 15.7. Further, the “pPb* (−log of free Pb^2+ plus hydrolysis products)” value in data set [2] (setting [6]) is reported as 15.4. Also, the “log β, Pb^2+ + H^+ + L^2– ⇋ [PbHL]^+” value in data set [3] is recorded as 20.89 ± 0.07 ^c. The “log β, Pb^2+ + L^2– ⇋ [PbL]” value in data set [3] came out at 18.2 ± 0.1. Further, the “effect of a change in reaction time on RCI” value in data set [4] (5 min vs 1 h, pH = 7, room temperature) is recorded as “no effect”. Besides, the “radiochemical incorporation (RCI) of [^203Pb]Pb^2+” value is more than 90% in data set [4] (ligand 10^–4 M, pH = 7, room temperature); more than 90% in data set [4] (ligand 10^–5 M, pH = 7, room temperature); 68 ± 1% in data set [4] (ligand 10^–6 M, pH = 7, room temperature); 56 ± 4% in data set [4] (ligand 10^–7 M, pH = 7, room temperature). For the same compound, in data set [4] (room temperature, 5 min reaction time, chelator concentration as low as 10^–5 M), the “radiochemical incorporation of [^203Pb]Pb^2+” value is “quantitative radiochemical incorporation”.

With `C1CNCCNCCNCCN1` [cyclen, 1,4,7,10-tetrazacyclododecane], the “logK Pb^2+-macrocycle” value in data set [5] is on record as 15.9.

These data come from paper PMC10828988, “Tuning the Softness of the Pendant Arms and the Polyazamacrocyclic Backbone to Chelate the ^203Pb/^212Pb Theranostic Pair” (Inorganic Chemistry, 2024).
